# Reference: ChEMBL document CHEMBL1146741, “Cycloalkyl[b][1,4]benzodiazepinoindoles are agonists at the human 5-HT2C receptor” (Bioorg Med Chem Lett, 2004)
# How the values were obtained:
# [1] = target: 5-hydroxytryptamine receptor 2B (Homo sapiens) (UniProt P41595); assay: Binding affinity against 5-hydroxytryptamine 2B receptor
# [2] = target: Sodium-dependent serotonin transporter (Rattus norvegicus) (UniProt P31652); assay: Percent binding affinity against serotonin transporter; details: concentration not given here
# Sodium-dependent serotonin transporter (Rattus norvegicus), sequence (P31652 whole entry, looked up): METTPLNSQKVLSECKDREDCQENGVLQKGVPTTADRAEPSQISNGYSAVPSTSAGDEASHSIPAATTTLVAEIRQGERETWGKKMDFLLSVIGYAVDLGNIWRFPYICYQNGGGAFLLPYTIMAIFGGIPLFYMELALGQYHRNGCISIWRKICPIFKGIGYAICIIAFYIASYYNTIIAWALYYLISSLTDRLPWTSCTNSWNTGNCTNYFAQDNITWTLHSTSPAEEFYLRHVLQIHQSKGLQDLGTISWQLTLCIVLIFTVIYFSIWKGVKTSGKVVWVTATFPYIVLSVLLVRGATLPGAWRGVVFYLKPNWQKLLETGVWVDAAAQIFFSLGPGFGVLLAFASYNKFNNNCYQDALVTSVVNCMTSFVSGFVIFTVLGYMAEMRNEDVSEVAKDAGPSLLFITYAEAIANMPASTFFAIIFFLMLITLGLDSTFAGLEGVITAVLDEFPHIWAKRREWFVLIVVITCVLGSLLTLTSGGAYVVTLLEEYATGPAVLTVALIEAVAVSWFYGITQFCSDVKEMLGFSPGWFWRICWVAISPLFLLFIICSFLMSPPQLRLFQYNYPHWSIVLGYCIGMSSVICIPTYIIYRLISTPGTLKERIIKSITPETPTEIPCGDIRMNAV
smiles,measurement,setting,value
c1cc2c3c(c1)c1c(n3CCNC2)CCCCCC1,Ki,[1],> 5 µM
same,inhibition,[2],14%
